In article PMC4721548, “Conformational heterogeneity of the Roc domains in C. tepidum Roc–COR and implications for human LRRK2 Parkinson mutations” (Bioscience Reports, 2015):

What was measured:
CtRocCOR [1] = target: T1, CtRocCOR (Chlorobaculum tepidum, UniProt Q8KC98); test: DEER pulse EPR inter-spin distance change upon nucleotide binding; conditions: 1 mM GppNHp, 150 mM NaCl, 30 mM Tris/HCl, 5 mM MgCl2, pH 7.5, 5% glycerol, 50 K; protein spin-labelled with MTSSL at native Cys600 (C600R1)
T1 construct: gene CT1526; RocCOR tandem, AA 412-946, recombinant, homodimer; MTSSL spin-labelled for EPR

CtRocCOR [2] = target: T1, CtRocCOR; test: GTPase activity assay; type: biochemical

T1 sequence (Q8KC98 entry or part of it): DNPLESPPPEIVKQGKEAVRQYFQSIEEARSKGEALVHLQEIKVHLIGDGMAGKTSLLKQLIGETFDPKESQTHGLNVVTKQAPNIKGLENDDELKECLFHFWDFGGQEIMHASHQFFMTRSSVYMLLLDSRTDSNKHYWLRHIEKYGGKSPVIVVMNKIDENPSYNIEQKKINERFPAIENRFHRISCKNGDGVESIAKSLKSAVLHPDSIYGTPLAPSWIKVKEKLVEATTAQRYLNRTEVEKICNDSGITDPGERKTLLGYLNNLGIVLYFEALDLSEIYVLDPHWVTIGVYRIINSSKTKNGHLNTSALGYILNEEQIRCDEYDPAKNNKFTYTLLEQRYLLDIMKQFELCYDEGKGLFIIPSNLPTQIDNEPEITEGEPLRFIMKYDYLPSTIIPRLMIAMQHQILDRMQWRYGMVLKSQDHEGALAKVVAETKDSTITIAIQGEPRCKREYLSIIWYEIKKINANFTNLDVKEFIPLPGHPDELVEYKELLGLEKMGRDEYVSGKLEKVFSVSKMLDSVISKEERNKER

SMILES | DEER pulse EPR inter-spin distance change upon nucleotide binding (CtRocCOR [1]) | GTPase activity assay (CtRocCOR [2])
Nc1nc2c(ncn2[C@@H]2O[C@H](COP(=O)(O)OP(=O)(O)NP(=O)(O)O)[C@@H](O)[C@H]2O)c(=O)[nH]1 [GppNHp] | in the presence of GppNHp, GDP·AlFx or GDP (Figure 2c) reveal changes upon nt binding | 
Nc1nc2c(ncn2[C@@H]2O[C@H](COP(=O)(O)OP(=O)(O)OP(=O)(O)O)[C@@H](O)[C@H]2O)c(=O)[nH]1 [GTP] |  | No significant impairment of GTPase activity by the mutations in comparison with wild-type
